Test results reported in patent US20090142766A1, “METHODS FOR MEASURING THE METABOLISM OF CNS DERIVED BIOMOLECULES IN VIVO” (Washington University in St. Louis, priority 2007, published 2009).

Tests used:
[1] = Aβ fractional synthesis and clearance rate in CSF (immunoprecipitation-MS/MS after ^13C6-leucine labeling); type: in vivo, human; conditions: 6 healthy young participants
Text: Protein production and clearance are important parameters that are tightly regulated and reflect normal physiology as well as disease states. Previous studies of protein metabolism in humans have focused on whole body or peripheral body proteins, but not on proteins produced in the central nervous system (CNS). No methods were previously available to quantify protein production or clearance rates in the CNS of humans. Such a method would be valuable to assess not only Aβ production or clearance rates in humans but also the metabolism of a variety other proteins relevant to diseases of the CNS. In order to address critical questions about underlying AD pathogenesis and Aβ metabolism, a method for quantifying Aβ fractional synthesis rate (FSR) and fractional clearance rate (FCR) in vivo in the CNS of humans was developed.
For each sample of CSF collected, the ratio of labeled to unlabeled Aβ was determined by immunoprecipitation-MS/MS, as described above. […]
The fractional synthesis rate (FSR) was calculated using the standard formula, presented below: […]
The fractional clearance rate (FCR) was calculated by fitting the slope of the natural logarithm of the clearance portion of the labeled Aβ curve, according to the following formula: […]

[2] = Aβ clearance in cortex of APPswe/PS1deltaE9 double transgenic mice; type: in vivo; conditions: cortex, 3, 6 and 18 hr after ^13C6-leucine 200 μg/g i.p.
Protocol: To measure the brain Aβ clearance rate in mice, the method developed to assess ApoE clearance described above in Example 4 was performed in APPswe/PS1deltaE9 double transgenic mice (line #85; Jackson Labs, Bar Harbor, Me.). After a bolus intraperitioneal injection of ^13C6-leucine (200 μg/g), cortical brain tissue was harvested at 3, 6, and 18 hr post-injection (n=3) and lysed (lysis buffer, 1% Triton with PBS). Aβ was immunoprecipitated with an Aβ monoclonal antibody (HJ5.2, directed to Aβ 13-28) and then analyzed by nano-LC-MS/MS as described above. […] The clearance rate of soluble Aβ from cortex of transgenic mice was very similar with that of Aβ from human CSF as described by Bateman et al. 2006, supra.

[3] = cited from earlier work

## Aβ: endogenous amyloid-beta peptide (SEQ ID NO:1) produced in the CNS from amyloid precursor protein
[1]; 24 to 36 hours
  average fractional clearance rate (FCR): 8.3 %/hr
[1]; slope 6 to 15 hours
  average fractional synthesis rate (FSR): 7.6 %/hr
[2]
  fractional clearance rate (FCR) of soluble cortical Aβ: 7.62±1.25 % per hour
[3]
  t1/2 in brain interstitial fluid: 1 to 2 h
